Non-standard residues stand in square brackets, D forms with d. No end group written: not given here. Aib = CC(C)(N)C(=O)O
Assay: CD (circular dichroism) spectroscopy of α-helix structure
Type: physicochemical
Settings: Table 9; linear and cyclic αm-PEG10 peptide complexes, in H2O
Description: To evaluate the structures of a linear plasmid DNA and peptides, CD spectra were analyzed using a Chirascan CD spectrometer (Applied Photophysics, UK). […] The final concentration of the linear plasmid DNA was 30 ng/μL. All the samples were dissolved in H2O. For the formation of the artificial chromosome, a mixture of the peptide and the DNA was incubated for 12 days or longer. Scanning was performed using a 2-mm path-length cuvette. Each scan was repeated three times and averaged. MRE (mean residue ellipticity) was calculated based on the number of amino acid residues.
CD (circular dichroism) spectroscopy was performed as follows.
The CD spectra were analyzed using a Chirascan CD spectrometer (Applied Photophysics, UK). […] All the samples were dissolved in H2O. Each scan was repeated three times using a 2-mm path-length cuvette and averaged. MRE (mean residue ellipticity) was calculated based on the number of amino acid residues.

Point of comparison: WAUAUAUAUAUAU(PEG2)5 [Example 48], “[θ]222/[θ]208” value 0.88. Against it:
- WAUAUAUAUAUAU(PEG2)5 [Example 100] — higher, 0.95
- WAUAUAUAUAUAUAU(PEG2)5 [Example 49] — higher, 1.05
- WAUAUAUAUAUAUAU(PEG2)5 [Example 101] — higher, 1.01
- WAUAUAUAUAUAUAUAU(PEG2)5 [Example 50] — higher, 1.10

Same assay, conditions: Table 10; hydrophobic peptides of Examples 1-36

Point of comparison: AUAUAUAUAUAUAUA [Example 8], “θ222 nm/θ208 nm ratio” value 1.13. Against it:
- AUAUAUAUA [Example 2] — lower, 0.72
- AUAUAUAUAUAUAUAUAUAUA [Example 14] — higher, 1.26

Same assay, conditions: Table 11

In the case of “RAUAUAUAUAUAUAUAUAUAUAGRGDRGDRGDRGDG [Example 67]”, the “minimum at 222 and 208 nm in the spectra” value is reported as “no minimum was observed”.
In the case of “RGDRGDRGDRGDAUAUAUAUAUAUAUAUAUAUAR [Example 72]”, the “minimum at 222 and 208 nm in the spectra” value is reported as “no minimum was observed”.
For “RGDRGDRGDRGDAUAUAUAUAUAUAUAUAUAUARR [Example 75]”, the “minimum at 222 and 208 nm in the spectra” value was “no minimum was observed”.

Same assay, conditions: Table 11; peptide complexes of Examples 37-97

Point of comparison: WAUAUAUAUAUAUAUAUAU(PEG2)5 [Example 51], “θ222 nm/θ208 nm ratio” value 1.19. Against it:
- EAUAUAUAUAUAUAUAUAUAUARGDRGDRGD (EA[Aib]A[Aib]A[Aib]A[Aib]A[Aib]A[Aib]A[Aib]A[Aib]A[Aib]A[Aib]ARGDRGDRGD) [Example 94] — lower, 1.06
- Example 43: peptide complex (Wαm-RGD, Wαm-GS), SEQ ID NO 43 (AXAXAXAXAXAXAXAXAXAXAGSGSG; SITE 2 2-aminoisobutyric acid; SITE 4 2-aminoisobutyric acid; SITE 6 2-aminoisobutyric acid; SITE 8 2-aminoisobutyric acid; SITE 10 2-aminoisobutyric acid; SITE 12 2-aminoisobutyric acid; SITE 14 2-aminoisobutyric acid; SITE 16 2-aminoisobutyric acid; SITE 18 2-aminoisobutyric acid; SITE 20 2-aminoisobutyric acid) — lower, 1.15
- Example 45: peptide complex (Wαm-RGD, Wαm-GS), SEQ ID NO 45 (A[Aib]A[Aib]A[Aib]A[Aib]A[Aib]A[Aib]A[Aib]A[Aib]A[Aib]A[Aib]AGSGSGSGSG) — lower, 1.09
- RGDRGDAUAUAUAUAUAUAUAUAUAUARR [Example 73] — lower, 1.1
- RGDRGDRGDAUAUAUAUAUAUAUAUAUAUARR [Example 74] — lower, 1.11
- WAUAUAUAU(PEG2)5 [Example 46] — lower, 0.72
- WAUAUAUAUAUAU(PEG2)5 [Example 48] — lower, 0.88
- WAUAUAUAUAUAUAU(PEG2)5 [Example 49] — lower, 1.05
- WAUAUAUAUAUAUAUAU(PEG2)5 [Example 50] — lower, 1.10

Same assay, conditions: Table 13; cyclic peptide complexes

Point of comparison: WAUAUAUAUAUAU(PEG2)5 [Example 100], “[θ]222/[θ]208” value 0.95. Against it:
- (PEG2)5RRRRRR(PEG2)5WAUAUAUAUAUAUAUAU [Example 111] — the same, 0.95
- WAUAUAUAUAUAUAU(PEG2)5 [Example 101] — higher, 1.01
- WAUAUAUAUAUAUAUAU(PEG2)5RGDRGD(PEG2)5 [Example 110] — higher, 1.06

Same assay, conditions: Table 14; coil-rod-coil peptide complexes

Point of comparison: “(PEG10)2AUAUAUAUAUAUAUAUAUAUA(PEG10)2 [Example 127]”, “[θ]222/[θ]208” value 1.2. Against it:
- (PEG8)2AUAUAUAUA(PEG8)2 [Example 123] — lower, 0.6
- (PEG8)2AUAUAUAUAUAUAUA(PEG8)2 [Example 124] — lower, 0.78
- (PEG8)2AUAUAUAUAUAUAUAUAUAUA(PEG8) [Example 122] — lower, 1.06
- (PEG8)3AUAUAUAUAUAUAUAUAUAUA(PEG8)3 [Example 126] — lower, 1.18
- (PEG8)AUAUAUAUA(PEG8)2 [Example 119] — lower, 0.61
- (PEG8)AUAUAUAUAUAUAUA(PEG8)2 [Example 120] — lower, 0.83
- (PEG8)AUAUAUAUAUAUAUAUAUAUA(PEG8)2 [Example 121] — lower, 1.04
- GSGAUAUAUAUAUAUAUAUAUAUAGSG [Example 116] — lower, 1.15
- GSGSGAUAUAUAUAUAUAUAUAUAUAGSGSG [Example 117] — lower, 1.07
- GSGSGSGSGAUAUAUAUAUAUAUAUAUAUAGSGSGSGSG [Example 118] — lower, 1.02

Same assay, conditions: from CD spectra

In the case of AUAUAUAUAUAUAUAUAUAUA [Example 14], the “α-helix structure (in words)” value is reported as “monomeric, nonpolar and perfect α-helix (MNP-helix) structure”.
